Data reported in US7884136B2, “Modified-release formulations of a bupropion salt” (Biovail Laboratories International S.R.L., priority 2005, dated 2011).
Like-named read-outs stand apart in the source and are kept apart here.

How the values were obtained:
[1] = pH of 0.5% aqueous solution of bupropion salts; format: physicochemical
Description: (§1) The eight salts were first evaluated by HPLC, KF, pH and DSC for purity, water content, aqueous pH and possible polymorphs.
(§2) The salts were analysed by DSC (at 10° C./min from 30° C. up to 400° C.) and the pH (aq. 0.5%), and the moisture content by KF were also measured. The TGA was performed on the HCl, maleate, tosylate and HBr salts.

[2] = Release of bupropion base from bupropion HCl and HBr; format: physicochemical; settings: 150 mg of the salt tested
Description: It was previously observed that when 150 mg of bupropion HCl was tested for its release of bupropion, the base value that was released was 130 mg.

[3] = Solubility of Bupropion HBr vs Bupropion HCl in water, EtOH, IPA; format: physicochemical
[4] = Comparative forced degradation of bupropion HCl and HBr API salts, closed glass bottle, 40° C./75% RH, HPLC; format: physicochemical; settings: closed glass bottle
Description: Further stability tests were performed by directly comparing bupropion HBr and bupropion HCl salts in forced degradation studies. […] At specified times, the material in the bottles was analyzed for the presence of degradation products and % potency (% assay).
The samples were exposed to the above conditions in a closed bottle for few days, and then subjected to HPLC analysis. The amount of the main degradation products present after treatment were compared with those amounts that were present initially.
The samples were analysed after 14 and 24 days (study-1) and 10 days (study II), in a quantitative manner by direct treatment of the whole content of the bottle as per the HPLC standard test method (P05.901.10).

[5] = Forced degradation stability study of bupropion salts spiked with placebo/excipients, closed vials, 40° C./75% RH, HPLC assay and impurities
Description: The stability of the salts was evaluated based on the formation of the main degradation products (see below) as determined by HPLC analysis and the % potency (or assay) of the API, after specific time periods in the stability chamber. The effect of the addition of solvents, such as water, ethanol and isopropyl alcohol, was also studied.
The samples of each salt and the spiked salts with the bupropion HCl XL were prepared under the conditions mentioned in Table 4. […] The stability of the bupropion salts were evaluated based on the formation of the main degradation product 3-chlorobenzoic acid (3-CBZ) and the intermediate degradation products diketone 827U76 and the ketohydroxyl derivatives (20U78 and 852U77) (Scheme 2).
As mentioned above, the stability samples were prepared in 2 mL vials and used directly for assay and impurity analysis by HPLC without further sample preparations to minimize errors.

[6] = TGA experiment at 100° C., loss of API salt over time; format: physicochemical; settings: TGA at 100° C.
Description: The average weight of the excipients and the weight of the active pharmaceutical ingredient (API) present in the samples are presented in Table 72. […] FIG. 53 is a graph showing the loss of each salt over time in a TGA experiment at 100° C.

[7] = Thermal analysis by TGA of bupropion salts; format: physicochemical; settings: 400° C.
Description: 2-5 mg of each salt was placed in an aluminium pan and covered with its lid. DSC was run for each sample at the rate of 10° C./min (for HBr salt, different rates were used to investigate for polymorphs) from 30° C. to 400° C. TGA was also used for each of the HBr, HCl, maleate and tosylate salts.
as §2

[8] = Moisture content of bupropion salts by KF; format: physicochemical
Description: as §1, §2

[9] = repeat study, 40 C/75% RH, 10 Days, Lot# STN06973, hydrochloride
[10] = repeat study, 40 C/75% RH, 10 Days, Lot# STN06978, hydrochloride
[11] = repeat study, 40 C/75% RH, Initial, Lot# STN06973, hydrochloride
[12] = repeat study, 40 C/75% RH, Initial, Lot# STN06978, hydrochloride
[13] = In IPA/EtOH, 32 days, closed vials
[14] = In water, 32 days, closed vials

## CC(NC(C)(C)C)C(=O)c1cccc(Cl)c1.Cl (racemic) [Bupropion HCl, (±)-1-(3-chlorophenyl)-2-[(1,1-dimethylethyl)amino]-1-propanone hydrochloride, reference compound]
[1]; 0.5% aqueous solution, original API salts
  pH (aq. 0.5%), Original (Initial APIs): 5.90
[1]; Table 3, supplier API
  pH (aq. 0.5%): 5.90
[2]
  Base value of bupropion released: 130 mg
[3]; ethanol, organic solvent or mixture, EtOH, read-out: Solubility, EtOH
  solubility: 80 mg/mL
[3]; isopropanol, organic solvent or mixture, IPA, read-out: Solubility, IPA
  solubility: 10 mg/mL
[3]; water, read-out: Solubility, Water
  solubility: 270 mg/mL
[4]; 40° C./75% RH, 14-Days
  % Assay: 98.5%
  % Impurities 3-CBZ: 0.019%
  % Impurities 20U78/dilu: 0.038%
  % Impurities 852U77: 0.010%
  % Impurities Total unknown: 0.038%
  Total (%) impurities: 0.11%
[4]; 40° C./75% RH, 24 Days
  % Assay: 98.5%
  % Impurities 3-CBZ: 0.082%
  % Impurities 20U78/dilu: 0.040%
  % Impurities 827U76: 0.102%
  % Impurities 852U77: 0.023%
  % Impurities Total unknown: 0.049%
  Total (%) impurities: 0.30%
[4]; 40° C./75% RH, Initial
  % Assay: 100.4%
  % Impurities 3-CBZ: 0.002%
  % Impurities 20U78/dilu: 0.043%
  % Impurities 852U77: 0.003%
  % Impurities Total unknown: 0.044%
  Total (%) impurities: 0.09%
[4]; [9]
  % Assay: 96.3%
  % Impurities 3-CBZ: 0.110%
  % Impurities 20U78/dilu: 0.047%
  % Impurities 827U76: 0.045%
  % Impurities 852U77: 0.047%
  % Impurities Total unknown: 0.187%
  Total (%) impurities: 0.44%
[4]; [10]
  % Assay: 96.5%
  % Impurities 3-CBZ: 0.278%
  % Impurities 20U78/dilu: 0.057%
  % Impurities 827U76: 0.141%
  % Impurities 852U77: 0.124%
  % Impurities Total unknown: 0.137%
  Total (%) impurities: 0.74%
[4]; [11]
  % Assay: 99.4%
  % Impurities 3-CBZ: 0.003%
  % Impurities 20U78/dilu: 0.040%
  % Impurities Total unknown: 0.053%
  Total (%) impurities: 0.10%
[4]; [12]
  % Assay: 99.1%
  % Impurities 3-CBZ: 0.002%
  % Impurities 20U78/dilu: 0.04%
  % Impurities Total unknown: 0.165%
  Total (%) impurities: 0.21%
[5]; DS and excipients spiked with IPA & EtOH, 32 days, closed vials, 40° C.
  Order of stability (assay) with IPA & EtOH: HCl>HBr>tosylate>maleate>fumarate
[5]; DS and excipients spiked with water, 32 days, closed vials, 40° C.
  Order of stability (assay) with water: tosylate>maleate>HCl>HBr>fumarate
[5]; [13]
  Content of impurity 3-CBZ, order of salts: maleate > HBr > HCl > Fumarate
  Content of impurity 852U77, order of salts: fumarate > HBr ≈ HCl ≈ maleate ≈ tosylate
  Total imp., order of salts: fumarate > maleate > HBr > HCl > tosylate
[5]; [14]
  Content of impurity 3-CBZ, order of salts: HCl > HBr ≈ maleate ≈ fumarate
  Content of impurity 852U77, order of salts: fumarate > HBr > maleate > HCl
  Total imp., order of salts: fumarate > HBr > HCl > tosylate > maleate
[5]; salt plus excipients, 20 days, closed vial, 40° C./75% RH
  Order of stability (assay, % potency): HBr>HCl=tosylate>fumarate>maleate
[6]
  Disproportionation of the salt at elevated temperature: disproportionation of the HCl salt occurs with concomitant loss of gaseous HCl
[7]
  TGA: residue at 400° C.: minimal residues
[8]; Table 3, supplier API
  Moisture Content (KF): 0.01%
[8]; original API salts
  KF (moisture content), Original (Initial APIs): 0.0%
